One may read the fold induction as the ratio of treated to control signal.

SMILES strings stand for the structures.

This assay has as its system LC3-II. Put plainly: LC3-II production capacity at 10 μM (Table 4). It is filed as cell-based. The conditions noted are these: Homo sapiens, 12 h. Here is the method: ARPE-19 was dispensed into a 6-well plate at a concentration of 1×10^5 cells/well and cultured for 24 hours. Then, cells were treated with example 17 compound of the present invention at concentrations of 10, 25, and 50 μM for 12 hours. Then, a cell lysis buffer containing a protease inhibitor was added to prepare a cell lysate. The LC3-II level was measured by Western immunoblotting using an anti-LC3-II antibody (Cell Signaling Technology, MA, USA). As an internal control, an antibody against β-actin (Cell Signaling Technology) was used and measured by Western immunoblotting in the same manner as above, and is shown in FIG. 6 (upper graph).
The autophagy activation effect of example compounds expected to have autophagy activation ability and low cytotoxicity among the example compounds in Table 2 above in human retinal pigment epithelial cells was evaluated according to Experimental Example 7. That is, the autophagy activation effect through the increase of LC3-II was evaluated in a concentration-dependent manner, and the results are shown in FIGS. 15 and 16.
Consider `C=CCc1ccc(OC)c(-c2cc(CN3CCNCC3)on2)c1` [Example 29, 3-(5-allyl-methoxyphenyl)-5-(piperazine-1-ylmethyl)isoxazole], for which the fold induction at 10 µM is 5.8.
In the case of `COc1ccc(C(F)(F)F)cc1-c1cc(CO)on1` [Example 31, (3-(2-methoxy-5-(trifluoromethyl)phenyl)isoxazole-5-yl)methanol], the fold induction at 10 µM stood at 0.8.
`COc1ccc(C(F)(F)F)cc1-c1cc(C(C)(C)O)on1` [Example 32, 2-(3-(2-methoxy-5-(trifluoromethyl)phenyl)isoxazole-5-yl)propan-2-ol]: the fold induction at 10 µM is 0.9.
As to `COc1ccc(C(F)(F)F)cc1-c1cc(CCO)on1` [Example 33, 2-(3-(2-methoxy-5-(trifluoromethyl)phenyl)isoxazole-5-yl)ethan-1-ol], the fold induction at 10 µM was 1.5.
On to `COc1cc(C(F)(F)F)ccc1-c1cc(CO)on1` [Example 35, (3-(2-methoxy-4-(trifluoromethyl)phenyl)isoxazole-5-yl)methanol], for which the fold induction at 10 µM was found to be 1.1.
The value for `COc1ccc(C(F)(F)F)cc1-c1cc(COCC(=O)O)on1` [Example 36, 2-((3-(2-methoxy-5-(trifluoromethyl)phenyl)isoxazole-5-yl)methoxy)acetic acid] was 2.3; that for `COc1ccc(C(F)(F)F)cc1-c1cc(CN2CCN(C)C(=O)C2)on1` [Example 37, 4-((3-(2-methoxy-5-(trifluoromethyl)phenyl)isoxazole-5-yl)methyl)-1-methylpiperazine-2-on] was 2.2.
As for `COc1ccc(N2CCOCC2)cc1-c1cc(CO)on1` [Example 38, (3-(2-methoxy-5-morpholinophenyl)isoxazole-5-yl)methanol], the figure is 1.2; as for `C=CCc1ccc(OC)c(-c2cc(C(C)(C)O)on2)c1` [Example 39, 2-(3-(5-allyl-2-methoxyphenyl)isoxazole-5-yl)propan-2-ol], 0.7; as for `CCCc1ccc(OC)c(-c2cc(C(C)(C)O)on2)c1` [Example 40, 2-(3-(2-methoxy-5-propylphenyl)isoxazole-5-yl)propan-2-ol], 1.6.
Turning to `C=CCc1ccc(OC(F)(F)F)c(-c2cc(CO)on2)c1` [Example 43, (3-(5-allyl-2-(trifluoromethoxy)phenyl)isooxazole-5-yl)methanol], the fold induction at 10 µM stood at 19.7.
As for `C=CCc1ccc(-c2cc(CO)on2)c(OC)c1` [Example 44, (3-(4-allyl-2-methoxyphenyl)isoxazole-5-yl)methanol], the fold induction at 10 µM was found to be 3.8.
As for `COc1ccc(C(C)C)cc1-c1cc(CO)on1` [Example 45, (3-(5-isopropyl-2-methoxyphenyl)isoxazole-5-yl)methanol], the figure is 2.5; as for `COc1ccc(C(C)C)cc1-c1cc(CN2CCN(C(=O)OC(C)(C)C)CC2)on1` [Example 46, tert-butyl 4-((3-(5-isopropyl-2-methoxyphenyl)isoxazole-5-yl)methyl)piperazine-1-carboxylate], 1.5; as for `C=CCc1ccc(-c2cc(CN3CCN(C(=O)OC(C)(C)C)CC3)on2)c(OC)c1` [Example 48, tert-butyl 4-((3-(4-allyl-2-methoxyphenyl)isoxazole-5-yl)methyl)piperazine-1-carboxylate], greater than 15.
Regarding `C=CCc1ccc(-c2cc(CN3CCNCC3)on2)c(OC)c1` [Example 49, 3-(4-allyl-2-methoxyphenyl)-5-(piperazine-1-ylmethyl)isoxazole], the fold induction at 10 µM was determined as 1.1.
As for `C=CCc1ccc(OC(F)(F)F)c(-c2cc(CN3CCN(C(=O)OC(C)(C)C)CC3)on2)c1` [Example 50, tert-butyl 4-((3-(5-allyl-2-(trifluoromethoxy)phenyl)isoxazole-5-yl)methyl)piperazine-1-carboxylate], the fold induction at 10 µM was greater than 25.
The value for `C=CCc1ccc(OC(F)(F)F)c(-c2cc(CN3CCNCC3)on2)c1` [Example 51, 3-(5-allyl-2-(trifluoromethoxy)phenyl)-5-(piperazine-1-ylmethyl)isoxazole] was greater than 15.
As for `C=CCc1ccc(OC(F)(F)F)c(-c2cc(CN3CCN(C)CC3)on2)c1` [Example 52, 3-(5-allyl-2-(trifluoromethoxy)phenyl)-5-((4-methylpiperazine-1-yl)methyl)isoxazole], the figure is greater than 13; as for `CCCc1ccc(OC)c(-c2cc(CN3C[C@@H](C)O[C@@H](C)C3)on2)c1` [Example 53, (2S,6R)-4-((3-(2-methoxy-5-propylphenyl)isoxazole-5-yl)methyl)-2,6-dimethylmorpholine], 0.9.
As for `CCCc1ccc(OC)c(-c2cc(CN3CCC(OC)CC3)on2)c1` [Example 54, 3-(2-methoxy-5-propylphenyl)-5-((4-methoxypiperidine-1-yl)methyl)isoxazole], the fold induction at 10 µM came to 2.8.
In the case of `CCCc1ccc(OC)c(-c2cc(CN3CCC(C(=O)O)CC3)on2)c1` [Example 55, 1-((3-(2-methoxy-5-propylphenyl)isoxazole-5-yl)methyl)piperidine-4-carboxylic acid], the fold induction at 10 µM was determined as 1.8.
The value for `CCCc1ccc(OC)c(-c2cc(CN3CCc4sccc4C3)on2)c1` [Example 56, 5-((6,7-dihydrothieno[3,2-c]pyridin-5(4H)-yl)methyl)-3-(2-methoxy-5-propylphenyl)isoxazole] was 1.5; that for `CCCc1ccc(OC)c(-c2cc(CN3CCn4ccnc4C3)on2)c1` [Example 57, 5-((5,6-dihydroimidazo[1,2-a]pyrazin-7(8H)-yl)methyl)-3-(2-methoxy-5-propylphenyl)isoxazole] was 1.1.
As for `COc1ccc(CCO)cc1-c1cc(CN2CCN(C)CC2)on1` [Example 61, 2-(4-methoxy-3-(5-((4-methylpiperazine-1-yl)methyl)isoxazole-3-yl)phenyl)ethan-1-ol], the figure is 0.9.
The value for `COCCc1ccc(OC)c(-c2cc(CN3CCN(C)CC3)on2)c1` [Example 62, 3-(2-methoxy-5-(2-methoxyethyl)phenyl)-5-((4-methylpiperazine-1-yl)methyl)isoxazole] was 2.4.
As to `COc1ccc(C(C)C)cc1-c1cc(CN2CCN(C(C)=O)CC2)on1` [Example 63, 1-(4-((3-(5-isopropyl-2-methoxyphenyl)isoxazole-5-yl)methyl)piperazine-1-yl)ethan-1-on], the fold induction at 10 µM stood at 1.9.
The value for `C=CCc1ccc(OC)c(-c2cc(COc3ncnc4ccccc34)on2)c1` [Example 65, 3-(5-allyl-2-methoxyphenyl)-5-((quinazoline-4-yloxy)methyl)isoxazole] was 1.8; that for `C=C(C)Cc1ccc(OC)c(-c2cc(CN3CCN(C(=O)OC(C)(C)C)CC3)on2)c1` [Example 66, tert-butyl 4-((3-(2-methoxy-5-(2-methylallyl)phenyl)isoxazole-5-yl)methyl)piperazine-1-carboxylate] was greater than 18; that for `C=C(C)Cc1ccc(OC)c(-c2cc(CN3CCNCC3)on2)c1` [Example 67, 3-(2-methoxy-5-(2-methylallyl)phenyl)-5-(piperazine-1-ylmethyl)isoxazole] was 22.7.

These data come from US20250214951A1, “3-PHENYLISOXAZOLE DERIVATIVE, AND PHARMACEUTICAL COMPOSITION FOR PREVENTING OR TREATING EYE DISEASE, CONTAINING SAME AS ACTIVE INGREDIENT” (VASTHERA CO., LTD., priority 2022, published 2025).
